{"source": "patent US20160000721A1", "about": "“GASTRO-RETENTIVE FORMULATIONS” (priority 2012, published 2016)", "key": {"[1]": {"experiment": "Aqueous solubility of raltegravir at given pH", "format": "physicochemical", "description": "In one embodiment of the invention, the drug is raltegravir or pharmaceutically acceptable salt thereof. Raltegravir (N-(4-fluorobenzyl)-5-hydroxy-1-methyl-2-(1-methyl-1-{[(5-methyl-1,3,4-oxadiazol-2-yl)carbonyl]amino}ethyl)-6-oxo-1,6-dihydropyrimidine-4-carboxamide) belongs to a novel class of anti-retroviral drugs indicated for the treatment of human immunodeficiency virus (HIV-1) known as integrase strand inhibitors. See, e.g., U.S. Pat. No. 7,169,780. More particularly preferred is the anhydrous crystalline potassium salt of raltegravir, which is characterized by an X-ray powder diffraction pattern obtained using copper Kα radiation which comprises 2Θ values in degrees of 5.9, 20.0 and 20.6. See U.S. Pat. No. 7,754,731, herein incorporated by reference in its entirety. This form of raltegravir is the active pharmaceutical ingredient (API) in […]® tablets."}, "[2]": {"details": "in vivo; cited from earlier work"}}}
{"smiles": "Cc1nnc(C(=O)NC(C)(C)c2nc(C(=O)NCc3ccc(F)cc3)c(O)c(=O)n2C)o1", "note": "[Raltegravir, N-(4-fluorobenzyl)-5-hydroxy-1-methyl-2-(1-methyl-1-{[(5-methyl-1,3,4-oxadiazol-2-yl)carbonyl]amino}ethyl)-6-oxo-1,6-dihydropyrimidine-4-carboxamide]", "values": [{"measurement": "solubility", "setting": "[1]; aqueous buffer, pH range of 1-6", "result": 20, "unit": "µg/mL"}, {"measurement": "solubility", "setting": "[1]; pH 6.8, aqueous buffer", "result": 480, "unit": "µg/mL"}, {"measurement": "terminal half-life", "setting": "[2]", "result": "approximately 9 hours"}, {"measurement": "α-phase half-life", "setting": "[2]", "result": "approximately 1 hour"}]}
